Bounds are passed on as bounds.

The target in the experiment is T1, IRAK-4 (Homo sapiens, UniProt Q9NWZ3).
T1 sequence (Q9NWZ3 1-460): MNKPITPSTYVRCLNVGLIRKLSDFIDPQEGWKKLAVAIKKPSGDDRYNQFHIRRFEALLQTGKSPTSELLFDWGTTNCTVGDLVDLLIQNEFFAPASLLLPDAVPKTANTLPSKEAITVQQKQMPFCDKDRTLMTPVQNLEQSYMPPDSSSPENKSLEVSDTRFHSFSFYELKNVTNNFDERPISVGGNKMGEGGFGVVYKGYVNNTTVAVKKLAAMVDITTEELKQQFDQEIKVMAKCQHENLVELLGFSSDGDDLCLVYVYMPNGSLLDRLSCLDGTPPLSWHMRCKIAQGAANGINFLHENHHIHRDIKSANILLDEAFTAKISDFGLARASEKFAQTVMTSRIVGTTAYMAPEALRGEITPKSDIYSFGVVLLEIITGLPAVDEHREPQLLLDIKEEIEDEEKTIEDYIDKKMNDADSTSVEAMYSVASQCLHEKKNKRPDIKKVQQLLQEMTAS
Kind of experiment: IRAK-4 ELISA, PBMC degradation. It is filed as cell-based. Details: endogenous in cells; host or cells: PBMC. The settings on record: treated overnight. On the procedure: Reagents: Human IRAK-4 Matched Antibody Pair Kit (Abcam ab218182) and ELISA Accessory Pack (Abcam ab210905).
Cell Treatment and Lysis:
1. OCI-Ly10: 200,000 cells are seeded at 1×10^6/ml in 96-well U-bottom plates 200 ul per well, treated with compound the same day. Incubate overnight. 2. PBMC: 800,000 cells are seeded at 2×10^6/ml in 96-well U-bottom deep-well plates, 400 ul per well, treated with compound the same day. Incubate overnight.
Cell lysate is collected and analyzed by ELISA for IRAK-4 levels.

In the case of `CN1CC(Oc2cc3nn(C4CCN(CC5CN(c6ccc7c(c6)C(=O)N(C6CCC(=O)NC6=O)C7=O)C5)CC4)cc3cc2NC(=O)c2cnn3cccnc23)C1` (stereo not drawn) [Example 151], the DC50 lay within 5 to 10 nM, the Dmax was 70 to 80% and the “PBMC DC90” value is reported as “D (D represents a DC90 value ≥50 nM)”.
Taken in the same sequence, the figures for `CN1CC(Oc2cc3nn(C4CCN(CC5CCN(c6ccc7c(c6)C(=O)N(C6CCC(=O)NC6=O)C7=O)CC5)CC4)cc3cc2NC(=O)c2cnn3cccnc23)C1` (stereo not drawn) [Example 152] were not below 10 nM, less than 70% and “D (D represents a DC90 value ≥50 nM)”.
Take `O=C1CCC(N2C(=O)c3ccc(N4CC(O)(CN5CCC(n6cc7cc(NC(=O)c8cnn9cccnc89)c(OCC8CC8)cc7n6)CC5)C4)cc3C2=O)C(=O)N1` (stereo not drawn) [Example 169]: the DC50 is less than 1 nM, the Dmax is not below 90% and the “PBMC DC90” value is reported as 122 nM.
On to `O=C1CCC(N2C(=O)c3ccc(N4CCC(N5CCC(n6cc7cc(NC(=O)c8cnn9cccnc89)c(OCC8CC8)cc7n6)CC5)CC4)cc3C2=O)C(=O)N1` (stereo not drawn) [Example 170], for which the DC50 was less than 1 nM, the Dmax is not below 90% and the “PBMC DC90” value is “A (A represents a DC90 value <10.0 nM)”.
`O=C1CCC(N2C(=O)c3ccc(N4CCC[C@H](CN5CCC(n6cc7cc(NC(=O)c8cnn9cccnc89)c(OCC8CC8)cc7n6)CC5)C4)cc3C2=O)C(=O)N1` (stereo partly drawn) [Example 174]: the 50% degradation concentration (DC50) fell in the range of 1 to 5 nM; the Dmax is not below 90%; the “PBMC DC90” value is “B (B represents a DC90 value ≥10.0 nM and <25.0 nM)”.
On to `O=C1CCC(N2C(=O)c3ccc(N4CCC[C@@H](CN5CCC(n6cc7cc(NC(=O)c8cnn9cccnc89)c(OCC8CC8)cc7n6)CC5)C4)cc3C2=O)C(=O)N1` (stereo partly drawn) [Example 175], for which the DC50 is 1 to 5 nM; the Dmax was not below 90%; the “PBMC DC90” value is “B (B represents a DC90 value ≥10.0 nM and <25.0 nM)”.
`O=C1CCC(N2C(=O)c3ccc(N4CCO[C@@H](CN5CCC(n6cc7cc(NC(=O)c8cnn9cccnc89)c(OCC8CC8)cc7n6)CC5)C4)cc3C2=O)C(=O)N1` (stereo partly drawn) [Example 176]: the DC50 was less than 1 nM, the Dmax is not below 90% and the “PBMC DC90” value is “A (A represents a DC90 value <10.0 nM)”.
Taken in the same sequence, the figures for `O=C1CCC(N2C(=O)c3ccc(N4CCO[C@H](CN5CCC(n6cc7cc(NC(=O)c8cnn9cccnc89)c(OCC8CC8)cc7n6)CC5)C4)cc3C2=O)C(=O)N1` (stereo partly drawn) [Example 177] were less than 1 nM, not below 90% and “A (A represents a DC90 value <10.0 nM)”.
In the case of `O=C1CCC(N2C(=O)c3ccc(N4CC(O[C@H]5CC[C@H](n6cc7cc(NC(=O)c8cnn9cccnc89)c(OCC8CC8)cc7n6)CC5)C4)cc3C2=O)C(=O)N1` (stereo partly drawn) [Example 183], the DC50 was 1 to 5 nM; the Dmax is not below 90%; the “PBMC DC90” value is “B (B represents a DC90 value ≥10.0 nM and <25.0 nM)”.
On to `O=C1CCC(N2C(=O)c3ccc(N4CC(CN5CCC(n6cc7cc(NC(=O)c8cnn9cccnc89)c(C8CC8)cc7n6)CC5)C4)cc3C2=O)C(=O)N1` (stereo not drawn) [Example 185], for which the DC50 was less than 1 nM, the Dmax is not below 90% and the “PBMC DC90” value is on record as “A (A represents a DC90 value <10.0 nM)”.
In the case of `O=C1CCC(N2C(=O)c3ccc(N4CCC(CN5CCC(n6cc7cc(NC(=O)c8cnn9cccnc89)c(C8CC8)cc7n6)CC5)CC4)cc3C2=O)C(=O)N1` (stereo not drawn) [Example 186], the DC50 was in the range of 1 to 5 nM, the Dmax is not below 90% and the “PBMC DC90” value is “A (A represents a DC90 value <10.0 nM)”.
With `CC(C)Oc1cc2nn(C3CCN(CC4CN(c5ccc6c(c5)C(=O)N(C5CCC(=O)NC5=O)C6=O)C4)CC3)cc2cc1NC(=O)c1cnn2cccnc12` (stereo not drawn) [Example 187], the DC50 was less than 1 nM, the Dmax is not below 90% and the “PBMC DC90” value is “A (A represents a DC90 value <10.0 nM)”.
In the case of `CC(C)Oc1cc2nn(C3CCN(CC4(F)CCN(c5ccc6c(c5)C(=O)N(C5CCC(=O)NC5=O)C6=O)CC4)CC3)cc2cc1NC(=O)c1cnn2cccnc12` (stereo not drawn) [Example 188], the DC50 fell in the range of 5 to 10 nM, the Dmax is not below 90% and the “PBMC DC90” value was “D (D represents a DC90 value ≥50 nM)”.
In the case of `CC(C)Oc1cc2nn(C3CCN(CC4(F)CN(c5cc6c(cc5F)C(=O)N(C5CCC(=O)NC5=O)C6=O)C4)CC3)cc2cc1NC(=O)c1cnn2cccnc12` (stereo not drawn) [Example 189], the DC50 was less than 1 nM, the Dmax was not below 90% and the “PBMC DC90” value is on record as “A (A represents a DC90 value <10.0 nM)”.
As to `CC(C)Oc1cc2nn(C3CCN(CC4(F)CN(c5ccc6c(c5)C(=O)N(C5CCC(=O)NC5=O)C6=O)C4)CC3)cc2cc1NC(=O)c1cnn2ccc(N3CCOCC3)nc12` (stereo not drawn) [Example 190], the DC50 was not below 10 nM, the Dmax was not below 90% and the “PBMC DC90” value is “D (D represents a DC90 value ≥50 nM)”.
As for `CC(C)Oc1cc2nn(C3CCN(CC4(F)CN(c5ccc6c(c5)C(=O)N(C5CCC(=O)NC5=O)C6=O)C4)CC3)cc2cc1NC(=O)c1cnn2ccc(N3C[C@H]4C[C@@H]3CO4)nc12` (stereo partly drawn) [Example 191], the DC50 is 5 to 10 nM, the greatest degradation seen (Dmax) fell in the range of 80 to 90% and the “PBMC DC90” value is given as “D (D represents a DC90 value ≥50 nM)”.
On the same counts, the results for `CC(C)Oc1cc2nn(C3CCN(CC4(C)CN(c5ccc6c(c5)C(=O)N(C5CCC(=O)NC5=O)C6=O)C4)CC3)cc2cc1NC(=O)c1cnn2cccnc12` (stereo not drawn) [Example 192] are 1 to 5 nM, 80 to 90% and “A (A represents a DC90 value <10.0 nM)”.
Consider `CC(C)Oc1cc2nn(C3CN(CC4(F)CCN(c5ccc6c(c5)C(=O)N(C5CCC(=O)NC5=O)C6=O)CC4)C3)cc2cc1NC(=O)c1cnn2cccnc12` (stereo not drawn) [Example 194], for which the DC50 was in the range of 1 to 5 nM; the Dmax was not below 90%; the “PBMC DC90” value is “C (C represents a DC90 value ≥25.0 nM and <50 nM)”.
As to `CCOc1cc2nn(C3CCN(CC4(F)CN(c5ccc6c(c5)C(=O)N(C5CCC(=O)NC5=O)C6=O)C4)CC3)cc2cc1NC(=O)c1cnn2cccnc12` (stereo not drawn) [Example 195], the DC50 is 1 to 5 nM; the maximal degradation (Dmax) is not below 90%; the “PBMC DC90” value is “B (B represents a DC90 value ≥10.0 nM and <25.0 nM)”.
On to `O=C1CCC(N2C(=O)c3ccc(N4CC(F)(CN5CCC(n6cc7cc(NC(=O)c8cnn9cccnc89)c(OC8CCC8)cc7n6)CC5)C4)cc3C2=O)C(=O)N1` (stereo not drawn) [Example 196], for which the DC50 fell in the range of 1 to 5 nM; the Dmax is 80 to 90%; the “PBMC DC90” value is “B (B represents a DC90 value ≥10.0 nM and <25.0 nM)”.
Consider `O=C1CCC(N2C(=O)c3ccc(N4CC(CN5CCC(n6cc7cc(NC(=O)c8cnn9cccnc89)c(OC8CCC8)cc7n6)CC5)C4)cc3C2=O)C(=O)N1` (stereo not drawn) [Example 197], for which the 50% degradation concentration (DC50) is less than 1 nM, the Dmax lay within 80 to 90% and the “PBMC DC90” value is recorded as “A (A represents a DC90 value <10.0 nM)”.
Regarding `O=C1CCC(N2C(=O)c3ccc(N4CC(F)(CN5CCC(n6cc7cc(NC(=O)c8cnn9cccnc89)c(OC8CCCC8)cc7n6)CC5)C4)cc3C2=O)C(=O)N1` (stereo not drawn) [Example 198], the 50% degradation concentration (DC50) lay in the range of 5 to 10 nM; the Dmax was not below 90%; the “PBMC DC90” value was “B (B represents a DC90 value ≥10.0 nM and <25.0 nM)”.
Consider `O=C1CCC(N2C(=O)c3ccc(N4CC(F)(CN5CCC(n6cc7cc(NC(=O)c8cnn9cccnc89)c(C8CC8)cc7n6)CC5)C4)cc3C2=O)C(=O)N1` (stereo not drawn) [Example 199], for which the DC50 lay within 1 to 5 nM; the Dmax is not below 90%; the “PBMC DC90” value is “B (B represents a DC90 value ≥10.0 nM and <25.0 nM)”.
For the molecule `O=C1CCC(N2C(=O)c3ccc(N4CC(F)(CN5CCC(n6cc7cc(NC(=O)c8cnn9cccnc89)c(OC8CC8)cc7n6)CC5)C4)cc3C2=O)C(=O)N1` (stereo not drawn) [Example 200], the DC50 is 1 to 5 nM, the Dmax is not below 90% and the “PBMC DC90” value was “A (A represents a DC90 value <10.0 nM)”.
On to `O=C1CCC(N2Cc3cc(N4CC(F)(CN5CCC(n6cc7cc(NC(=O)c8cnn9cccnc89)c(OC8CCC8)cc7n6)CC5)C4)ccc3C2=O)C(=O)N1` (stereo not drawn) [Example 214], for which the DC50 was less than 1 nM, the greatest degradation seen (Dmax) was in the range of 70 to 80% and the “PBMC DC90” value is listed as “A (A represents a DC90 value <10.0 nM)”.
For the molecule `O=C1CCC(N2C(=O)c3ccc(N4CC(F)(CN5CCC(N6Cc7cc(NC(=O)c8cnn9cccnc89)c(OC8CCC8)cc7C6=O)CC5)C4)cc3C2=O)C(=O)N1` (stereo not drawn) [Example 215], the DC50 was 1 to 5 nM, the Dmax fell in the range of 70 to 80% and the “PBMC DC90” value is “A (A represents a DC90 value <10.0 nM)”.
On to `O=C1CCC(N2Cc3cc(N4CC(F)(CN5CCC(n6cc7cc(NC(=O)c8cnn9cccnc89)c(OC8CCC8)cc7n6)CC5)C4)ccc3C2=O)C(=O)N1` (stereo not drawn) [Example 216], for which the DC50 is less than 1 nM; the “PBMC DC90” value is listed as “A (A represents a DC90 value <10.0 nM)”; the “PBMC Dmax” value is “B (B represents a Dmax value ≥80 and <90)”.
Take `COc1cc(N2CC(F)(CN3CCC(n4cc5cc(NC(=O)c6cnn7cccnc67)c(OC(C)C)cc5n4)CC3)C2)cc2c1C(=O)N(C1CCC(=O)NC1=O)C2=O` (stereo not drawn) [Example 217]: the DC50 was less than 1 nM, the Dmax lay within 80 to 90% and the “PBMC DC90” value is on record as “A (A represents a DC90 value <10.0 nM)”.

(Values after patent publication US20230099344A1, “COMPOUNDS AND METHODS FOR THE TARGETED DEGRADATION OF IRAK-4” (Arvinas Operations, Inc., priority 2021, published 2023).)
